The values below are quoted from earlier work in US20110305654A1, “ANHYDROUS PETROLEUM JELLY/ELASTOMER-FREE DEPIGMENTING COMPOSITIONS COMPRISING A SOLUBILIZED PHENOLIC COMPOUND” (Galderma Research & Development, priority 2008, published 2011).

Where two headings read alike, the source gives them in different places.

`Oc1ccc(O)cc1` [hydroquinone]: the Irritation entry reads like this: (10% concentrations) “relatively high”; (concentration of 2%) “virtually nonexistent”; (preparations with a 5% dose) “reduces greatly”.
